# Numbers after ± are expanded uncertainties.
# Test: mn = molality of the nth substance listed, in mol/kg
# Conditions: for surface tension liquid-gas: Capillary rise; for viscosity / speed of sound / mass density: 100 kPa, Liquid; for viscosity: Capillary tube (Ostwald / Ubbelohde) method; for speed of sound: Sing-around technique in a fixed-path interferometer; for mass density: Vibrating tube method
smiles,measurement,setting,value
OC[C@H]1O[C@@](CO)(O[C@H]2O[C@H](CO)[C@@H](O)[C@H](O)[C@H]2O)[C@@H](O)[C@@H]1O [D-sucrose] + O,surface tension liquid-gas,"298.15 K, m1 = 1.27",42.79 ± 0.7 mN/m
same,viscosity,"298.15 K, m1 = 1.27",2.727 ± 0.018 mPa·s
same,speed of sound,"298.15 K, m1 = 1.27",1607.8 ± 1.1 m/s
same,mass density,"298.15 K, m1 = 1.27",1127.29 ± 0.25 kg/m3
same,surface tension liquid-gas,"303.15 K, m1 = 1.27",42.13 ± 0.7 mN/m
same,viscosity,"303.15 K, m1 = 1.27",2.386 ± 0.016 mPa·s
same,speed of sound,"303.15 K, m1 = 1.27",1615.4 ± 1.1 m/s
same,mass density,"303.15 K, m1 = 1.27",1125.29 ± 0.25 kg/m3
same,surface tension liquid-gas,"308.15 K, m1 = 1.27",40.87 ± 0.7 mN/m
same,viscosity,"308.15 K, m1 = 1.27",2.085 ± 0.014 mPa·s
same,speed of sound,"308.15 K, m1 = 1.27",1621.8 ± 1.1 m/s
same,mass density,"308.15 K, m1 = 1.27",1123.11 ± 0.25 kg/m3
O=C(O)CC(O)(CC(=O)O)C(=O)O [citric acid] + O,surface tension liquid-gas,"298.15 K, m1 = 0.005",71.6 ± 0.69 mN/m
same,viscosity,"298.15 K, m1 = 0.005",0.9011 ± 0.0069 mPa·s
same,speed of sound,"298.15 K, m1 = 0.005",1494.6 ± 0.86 m/s
same,mass density,"298.15 K, m1 = 0.005",997.455 ± 0.05 kg/m3
same,surface tension liquid-gas,"303.15 K, m1 = 0.005",70.84 ± 0.69 mN/m
same,viscosity,"303.15 K, m1 = 0.005",0.8009 ± 0.0066 mPa·s
same,speed of sound,"303.15 K, m1 = 0.005",1504.7 ± 0.86 m/s
same,mass density,"303.15 K, m1 = 0.005",996.059 ± 0.045 kg/m3
same,surface tension liquid-gas,"308.15 K, m1 = 0.005",70.06 ± 0.69 mN/m
same,viscosity,"308.15 K, m1 = 0.005",0.7225 ± 0.0063 mPa·s
same,speed of sound,"308.15 K, m1 = 0.005",1516.2 ± 0.87 m/s
same,mass density,"308.15 K, m1 = 0.005",994.427 ± 0.051 kg/m3
[Cl][Dy]([Cl])[Cl] [dysprosium(III) chloride] + O,mass density,"298.15 K, m1 = 0.005",998.006 ± 0.05 kg/m3
[Cl][Er]([Cl])[Cl] [erbium trichloride] + O,mass density,"298.15 K, m1 = 0.005",998.051 ± 0.05 kg/m3
[Cl][Yb]([Cl])[Cl] [ytterbium trichloride] + O,mass density,"298.15 K, m1 = 0.005",998.121 ± 0.05 kg/m3
